Legend:
Type in all cases: cell-based
Tolloid-like protein 2 = target: T1, Tolloid-like protein 2 (Homo sapiens, UniProt Q9Y6L7); test: Inhibition of C-terminal Avi-6x-His epitope tagged and N-terminal human RAGE signal sequence tagged recombinant human TLL2 (26 to 1015 amino acids) expressed in CHOE1A cells incubated for 60 mins with promyostatin peptide substrate by FRET based assay
T1 sequence (Q9Y6L7 whole entry): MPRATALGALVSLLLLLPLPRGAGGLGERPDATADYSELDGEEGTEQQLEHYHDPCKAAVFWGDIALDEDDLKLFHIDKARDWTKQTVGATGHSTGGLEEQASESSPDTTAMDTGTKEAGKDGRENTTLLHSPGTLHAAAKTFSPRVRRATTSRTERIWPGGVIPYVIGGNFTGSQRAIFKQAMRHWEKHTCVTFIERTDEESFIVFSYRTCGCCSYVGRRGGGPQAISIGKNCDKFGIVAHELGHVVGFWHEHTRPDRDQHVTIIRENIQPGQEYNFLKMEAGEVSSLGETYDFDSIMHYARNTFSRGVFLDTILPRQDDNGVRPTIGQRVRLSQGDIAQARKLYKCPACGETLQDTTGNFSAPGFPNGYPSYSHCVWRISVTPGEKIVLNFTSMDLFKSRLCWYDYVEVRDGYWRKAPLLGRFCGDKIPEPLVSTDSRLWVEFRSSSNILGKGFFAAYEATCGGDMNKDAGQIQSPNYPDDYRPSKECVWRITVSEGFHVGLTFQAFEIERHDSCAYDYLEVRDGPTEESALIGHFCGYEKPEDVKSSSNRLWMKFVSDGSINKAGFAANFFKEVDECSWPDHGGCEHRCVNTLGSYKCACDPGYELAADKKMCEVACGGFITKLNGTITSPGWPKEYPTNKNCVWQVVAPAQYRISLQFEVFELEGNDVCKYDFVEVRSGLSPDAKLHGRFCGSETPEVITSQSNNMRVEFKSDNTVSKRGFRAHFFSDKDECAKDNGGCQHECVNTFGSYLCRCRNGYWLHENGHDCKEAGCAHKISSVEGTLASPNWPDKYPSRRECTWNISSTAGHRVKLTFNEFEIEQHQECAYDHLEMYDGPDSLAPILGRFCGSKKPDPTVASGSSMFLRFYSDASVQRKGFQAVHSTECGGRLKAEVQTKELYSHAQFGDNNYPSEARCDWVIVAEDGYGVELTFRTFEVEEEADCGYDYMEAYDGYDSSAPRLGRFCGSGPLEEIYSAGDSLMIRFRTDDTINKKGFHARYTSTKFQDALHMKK

[1] = target: T2, Bone morphogenetic protein 1 (Homo sapiens, UniProt P13497); test: Inhibition of C-terminal FLAG-6x-His epitope tagged and N-terminal human RAGE signal sequence tagged human BMP1 (23 to 721 amino acids) expressed in CHO-E1 cells pre-incubated for 10 mins before promyostatin peptide substrate addition and measured after 30 mins using 50 nM BMP1 by FRET based assay
T2 sequence (P13497 whole entry): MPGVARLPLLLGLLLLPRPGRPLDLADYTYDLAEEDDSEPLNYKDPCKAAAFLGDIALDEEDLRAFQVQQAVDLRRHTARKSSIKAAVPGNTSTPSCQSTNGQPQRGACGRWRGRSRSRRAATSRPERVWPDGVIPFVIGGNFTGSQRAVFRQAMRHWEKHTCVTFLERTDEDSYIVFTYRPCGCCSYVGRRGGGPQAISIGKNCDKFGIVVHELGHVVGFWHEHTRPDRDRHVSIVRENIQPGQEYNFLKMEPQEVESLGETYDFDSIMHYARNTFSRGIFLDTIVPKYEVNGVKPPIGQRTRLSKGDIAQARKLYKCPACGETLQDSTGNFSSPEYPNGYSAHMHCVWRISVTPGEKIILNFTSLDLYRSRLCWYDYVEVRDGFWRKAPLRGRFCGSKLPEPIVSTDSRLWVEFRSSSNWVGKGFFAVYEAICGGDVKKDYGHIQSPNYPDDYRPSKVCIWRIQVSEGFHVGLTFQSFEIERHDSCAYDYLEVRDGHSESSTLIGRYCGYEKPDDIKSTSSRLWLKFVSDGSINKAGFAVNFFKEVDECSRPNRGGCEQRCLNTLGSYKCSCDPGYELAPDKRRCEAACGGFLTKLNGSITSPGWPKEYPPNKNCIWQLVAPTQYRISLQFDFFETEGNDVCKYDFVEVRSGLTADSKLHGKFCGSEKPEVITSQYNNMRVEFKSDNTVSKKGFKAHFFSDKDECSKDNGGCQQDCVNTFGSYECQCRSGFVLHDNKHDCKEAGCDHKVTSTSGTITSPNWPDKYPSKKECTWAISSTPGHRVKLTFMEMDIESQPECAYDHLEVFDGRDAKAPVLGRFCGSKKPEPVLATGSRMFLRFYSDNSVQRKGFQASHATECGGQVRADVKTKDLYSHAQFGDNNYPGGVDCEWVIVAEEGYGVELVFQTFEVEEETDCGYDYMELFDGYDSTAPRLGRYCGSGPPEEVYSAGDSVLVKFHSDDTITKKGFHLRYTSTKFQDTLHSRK

Tolloid-like protein 1 = Tolloid-like protein 1 (Homo sapiens, UniProt O43897, I156V/N221S/V284A); test: Inhibition of recombinant human TLL1 I156V/N221S/V284A mutant expressed in CHOE1A cells pre-incubated for 10 mins before promyostatin peptide substrate addition and measured after 60 mins by FRET based assay
[2] = target: T2, Bone morphogenetic protein 1; test: Inhibition of C-terminal FLAG-6x-His epitope tagged and N-terminal human RAGE signal sequence tagged human BMP1 (23 to 721 amino acids) expressed in CHO-E1 cells pre-incubated for 10 mins before promyostatin peptide substrate addition and measured after 60 mins using 0.5 nM BMP1 by FRET based assay

Chain of Tolloid-like protein 1 (O43897 148-1013 I156V/N221S/V284A limits assumed): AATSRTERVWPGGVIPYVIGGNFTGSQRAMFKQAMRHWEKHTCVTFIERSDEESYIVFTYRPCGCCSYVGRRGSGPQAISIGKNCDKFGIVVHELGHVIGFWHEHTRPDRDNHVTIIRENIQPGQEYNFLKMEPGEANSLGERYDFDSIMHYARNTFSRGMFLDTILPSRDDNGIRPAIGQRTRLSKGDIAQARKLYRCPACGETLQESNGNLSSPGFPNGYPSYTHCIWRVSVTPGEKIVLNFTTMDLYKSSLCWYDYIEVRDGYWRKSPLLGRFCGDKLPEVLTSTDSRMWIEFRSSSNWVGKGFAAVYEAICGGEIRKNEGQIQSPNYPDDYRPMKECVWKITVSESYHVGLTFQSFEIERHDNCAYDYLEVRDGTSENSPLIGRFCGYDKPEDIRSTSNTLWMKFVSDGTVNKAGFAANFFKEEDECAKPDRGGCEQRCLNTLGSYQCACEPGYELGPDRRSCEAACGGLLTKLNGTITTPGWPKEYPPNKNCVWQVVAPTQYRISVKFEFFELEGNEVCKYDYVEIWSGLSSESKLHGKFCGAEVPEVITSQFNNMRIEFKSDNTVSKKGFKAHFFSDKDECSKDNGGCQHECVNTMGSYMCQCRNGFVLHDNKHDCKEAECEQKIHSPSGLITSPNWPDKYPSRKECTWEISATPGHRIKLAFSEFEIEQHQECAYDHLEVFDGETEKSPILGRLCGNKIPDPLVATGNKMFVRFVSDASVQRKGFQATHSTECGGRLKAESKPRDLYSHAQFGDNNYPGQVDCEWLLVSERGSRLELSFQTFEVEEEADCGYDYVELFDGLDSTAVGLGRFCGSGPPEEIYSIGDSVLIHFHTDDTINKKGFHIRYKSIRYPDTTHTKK

Row | SMILES | IC50 (Tolloid-like protein 2) | IC50 [1] | IC50 (Tolloid-like protein 1) | IC50 [2] | pIC50 [2]
1 | CCCCC[C@H](CN(O)C=O)C(=O)NCNC(=O)c1ccc(-c2cccc(OC)c2)o1 | < 794 nM | < 200 nM | < 398 nM | < 126 nM | –
2 | CCCCC[C@H](CN(O)C=O)C(=O)NCNC(=O)c1ccc(-c2ccccc2OC)o1 | < 794 nM | < 200 nM | < 398 nM | < 126 nM | –
3 | CCCCC[C@@H](C(=O)NCNC(=O)C1CCC(c2ccccc2)O1)[C@@H](CC)N(O)C=O (some centres not stated) | < 794 nM | < 200 nM | < 398 nM | < 126 nM | –
4 | CCCCC[C@H](CN(O)C=O)C(=O)NCNC(=O)c1ccc(-c2ccc(F)c(OC)c2)o1 | < 794 nM | < 200 nM | < 398 nM | < 126 nM | –
5 | CCCCC[C@H](CN(O)C=O)C(=O)NCNC(=O)c1ccc(-c2cccc(C(=O)OC(C)(C)C)c2)o1 | < 794 nM | < 200 nM | < 398 nM | < 126 nM | –
6 | O=CN(O)C[C@@H](CCc1ccccc1)C(=O)NCNC(=O)c1ccc(-c2ccccc2)o1 | < 794 nM | < 200 nM | < 398 nM | < 126 nM | –
7 | CCCCC[C@H](CN(O)C=O)C(=O)NCNC(=O)c1ccc(-c2cccc(P(C)(=O)OCC)c2)o1 (some centres not stated) | < 794 nM | < 200 nM | < 398 nM | < 126 nM | –
8 | CCCCC[C@H](CN(O)C=O)C(=O)NCNC(=O)c1ccc(-c2cccc(S(=O)(=O)N(C)C)c2)o1 | < 794 nM | < 200 nM | < 398 nM | < 126 nM | –
9 | CCCCC[C@H](CN(O)C=O)C(=O)NCNC(=O)c1ccc(-c2ccc3cn(C)nc3c2)o1 | < 794 nM | < 200 nM | < 398 nM | < 126 nM | –
10 | CCCCC[C@@H](C(=O)NCNC(=O)c1ccc(-c2ccc(C)c(C(=O)O)c2)o1)[C@@H](CC)N(O)C=O | < 794 nM | < 200 nM | < 398 nM | < 126 nM | –
11 | CCCCC[C@@H](C(=O)NCNC(=O)c1ccc(-c2cncc(C(=O)O)c2)o1)[C@@H](CC)N(O)C=O | < 794 nM | < 200 nM | < 398 nM | < 126 nM | –
12 | CCCCC[C@@H](C(=O)NCNC(=O)c1ccc(-c2cccc(OCCC)c2)o1)[C@@H](CC)N(O)C=O | < 794 nM | < 200 nM | < 398 nM | < 126 nM | –
13 | CCCCC[C@H](CN(O)C=O)C(=O)NCNC(=O)c1ccc(-c2ccc(OC)c(C(=O)O)c2)o1 | < 794 nM | < 200 nM | < 398 nM | < 126 nM | –
14 | CS(=O)(=O)c1cccc(-c2ccc(C(=O)NCNC(=O)[C@H](CCc3ccccc3)CN(O)C=O)o2)c1 | < 794 nM | < 200 nM | < 398 nM | < 126 nM | –
15 | CCCCC[C@H](CN(O)C=O)C(=O)NCNC(=O)c1ccc(-c2ccc(C#N)cc2)o1 | < 794 nM | < 200 nM | < 398 nM | < 126 nM | –
16 | CCCCC[C@@H](C(=O)NCNC(=O)c1ccc(-c2cc(OCC)cc(P(=O)(O)O)c2)o1)[C@@H](CC)N(O)C=O.NC(CO)(CO)CO | – | – | – | – | > 6.9
17 | CCCCC[C@H](CN(O)C=O)C(=O)NCNC(=O)c1ccc(-c2ccccc2C(=O)OC)o1 | < 794 nM | < 200 nM | < 398 nM | < 126 nM | –

Row | SMILES | IC50 (Tolloid-like protein 2) | IC50 [1] | IC50 (Tolloid-like protein 1) | IC50 [2] | pIC50 [2]
18 | CCCCC[C@H](CN(O)C=O)C(=O)NCNC(=O)c1ccc(-c2cccc(C#N)c2)o1 | < 794 nM | < 200 nM | < 398 nM | < 126 nM | –
19 | CCCCC[C@H](CN(O)C=O)C(=O)NCNC(=O)c1ccc(-c2ccc(C(=O)OC)cc2)o1 | < 794 nM | < 200 nM | < 398 nM | < 126 nM | –
20 | CCOc1cc(C(=O)O)cc(-c2ccc(C(=O)NCNC(=O)CCN(O)C=O)o2)c1 | – | < 200 nM | < 398 nM | < 126 nM | –
21 | CCCCC[C@H](CN(O)C=O)C(=O)NCNC(=O)c1ccc(-c2cncc(OC)c2)o1 | < 794 nM | < 200 nM | < 398 nM | < 126 nM | –
22 | CCCCC[C@H](CN(O)C=O)C(=O)NCNC(=O)c1ccc(-c2cccc(OCCN3CCCC3)c2)o1 | < 794 nM | < 200 nM | < 398 nM | < 126 nM | –
23 | CCCCC[C@H](CN(O)C=O)C(=O)NCNC(=O)c1ccc(-c2ccccc2O)o1 | < 794 nM | < 200 nM | < 398 nM | < 126 nM | –
24 | CCCCC[C@@H](C(=O)NCNC(=O)c1ccc(-c2cccc(/C(N)=N/O)c2)o1)[C@@H](CC)N(O)C=O | < 794 nM | < 200 nM | < 398 nM | < 126 nM | –
25 | CCCCC[C@H](CN(O)C=O)C(=O)NCNC(=O)c1ccc(-c2ccccc2C(=O)O)o1 | < 794 nM | < 200 nM | < 398 nM | < 126 nM | –
26 | O=CN(O)C[C@@H](CC1CCCC1)C(=O)NCNC(=O)c1ccc(-c2ccccc2)o1 | < 794 nM | < 200 nM | < 398 nM | < 126 nM | –
27 | CCCCC[C@@H](C(=O)NCNC(=O)c1ccc(-c2ccccc2)o1)[C@@H](CO)N(O)C=O | < 794 nM | < 200 nM | < 398 nM | < 126 nM | –
28 | O=CN(O)C[C@@H](CCCc1ccccc1)C(=O)NCNC(=O)c1ccc(-c2ccccc2)o1 | < 794 nM | < 200 nM | < 398 nM | < 126 nM | –
29 | CCCCC[C@H](CN(O)C=O)C(=O)NCNC(=O)c1ccc(-c2cccc(C(=O)NC)c2)o1 | < 794 nM | < 200 nM | < 398 nM | < 126 nM | –
30 | CCCCC[C@H](CN(O)C=O)C(=O)NCNC(=O)c1ccc(-c2ccc(C)c(C(=O)O)c2)o1 | < 794 nM | < 200 nM | < 398 nM | < 126 nM | –
31 | CCCCC[C@H](CN(O)C=O)C(=O)NCNC(=O)c1ccc(-c2ccc3c(c2)S(=O)(=O)NC3)o1 | < 794 nM | < 200 nM | < 398 nM | < 126 nM | –
32 | CCCCC[C@H](CN(O)C=O)C(=O)NCNC(=O)c1ccc(-c2cccc(OC)n2)o1 | < 794 nM | < 200 nM | < 398 nM | < 126 nM | –
33 | CCCCC[C@@H](C(=O)NCNC(=O)c1ccc(-c2ccc(OC)c(C(=O)O)c2)o1)[C@@H](CC)N(O)C=O | < 794 nM | < 200 nM | < 398 nM | < 126 nM | –
34 | CCCCC[C@H](CN(O)C=O)C(=O)NCNC(=O)c1ccc(-c2cccc(P(=O)(OC)OC)c2)o1 | < 794 nM | < 200 nM | < 398 nM | < 126 nM | –

Source: ChEMBL document CHEMBL4476867, “Hydroxy formamide derivatives and their use” (2016)
